Experiments:
Assay type in all cases: in vivo
[1] = system: ryegrass, It. (Italian ryegrass, Lolium multiflorum); experiment: Test A preemergence, directed soil spray, visual injury rating; details: 0 is no effect, 100 is complete control
Summary of the method: (§1)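 Compounds in a surfactant-containing solvent were applied as a directed soil spray preemergence, or postemergence to plants 2-10 cm tall at the one- to two-leaf stage, in loam-sand blend. After about 10 d in the greenhouse, injury was rated visually against untreated controls on a 0-100 scale (100 = complete control).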

[2] = system: barnyardgrass (Echinochloa crus-galli); experiment: as above; details: 0 is no effect, 100 is complete control
Summary of the method: as §1

[3] = system: ragweed (common ragweed, Ambrosia elatior); experiment: as above; details: 0 is no effect, 100 is complete control
Summary of the method: as §1

[4] = system: foxtail, giant (giant foxtail, Setaria faberii); experiment: as above; details: 0 is no effect, 100 is complete control
Summary of the method: as §1

[5] = system: kochia (Kochia scoparia); experiment: as above; details: 0 is no effect, 100 is complete control
Summary of the method: as §1

[6] = system: pigweed (Amaranthus retroflexus); experiment: as above; details: 0 is no effect, 100 is complete control
Summary of the method: as §1

[7] = system: sedge, umbrella (small-flower umbrella sedge, Cyperus difformis); experiment: Test B flooded paddy test, visual rating; details: Flood, 250 g ai/ha, applied to paddy water, rated after 13 to 15 d
Summary of the method: (§2)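 Plants grown to the 2-leaf stage. At treatment, pots were flooded to 3 cm above the soil, compound was applied directly to the paddy water, and that depth was held throughout. After 13 to 15 d in the greenhouse, response was rated visually against controls on a 0 (no effect) to 100 (complete control) scale.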

[8] = system: barnyardgrass (Echinochloa crus-galli); experiment: Test B flooded paddy test, visual rating; details: Flood, 250 g ai/ha, applied to paddy water, rated after 13 to 15 d
Summary of the method: as §2

[9] = system: ducksalad (Heteranthera limosa); experiment: Test B flooded paddy test, visual rating; details: Flood, 250 g ai/ha, applied to paddy water, rated after 13 to 15 d
Summary of the method: as §2

[10] = system: rice (Oryza sativa); experiment: Test B flooded paddy test, visual rating; details: Flood, 250 g ai/ha, applied to paddy water, rated after 13 to 15 d
Summary of the method: as §2

[11] = system: ryegrass, It. (Italian ryegrass, Lolium multiflorum); experiment: Test A postemergence application, visual injury rating; details: 0 to 100 scale, 0 no effect, 100 complete control
Summary of the method: as §1

[12] = system: barnyardgrass (Echinochloa crus-galli); experiment: as above; details: 0 to 100 scale, 0 no effect, 100 complete control
Summary of the method: as §1

[13] = system: ragweed (common ragweed, Ambrosia elatior); experiment: as above; details: 0 to 100 scale, 0 no effect, 100 complete control
Summary of the method: as §1

[14] = system: blackgrass (Alopecurus myosuroides); experiment: as above; details: 0 to 100 scale, 0 no effect, 100 complete control
Summary of the method: as §1

[15] = system: foxtail, giant (giant foxtail, Setaria faberii); experiment: as above; details: 0 to 100 scale, 0 no effect, 100 complete control
Summary of the method: as §1

[16] = system: wheat (Triticum aestivum); experiment: as above; details: 0 to 100 scale, 0 no effect, 100 complete control
Summary of the method: as §1

[17] = system: kochia (Kochia scoparia); experiment: as above; details: 0 to 100 scale, 0 no effect, 100 complete control
Summary of the method: as §1

[18] = system: corn (Zea mays); experiment: as above; details: 0 to 100 scale, 0 no effect, 100 complete control
Summary of the method: as §1

[19] = system: pigweed (Amaranthus retroflexus); experiment: as above; details: 0 to 100 scale, 0 no effect, 100 complete control
Summary of the method: as §1

[20] = system: galium (catchweed bedstraw, Galium aparine); experiment: as above; details: 0 to 100 scale, 0 no effect, 100 complete control
Summary of the method: as §1

Row | Compound | Plant response rating (0 to 100 scale), Ryegrass, It. ([1]; 125 g ai/ha) | Plant response rating (0 to 100 scale), Barnyardgrass ([2]; 125 g ai/ha) | Plant response rating (0 to 100 scale), Ragweed ([3]; 125 g ai/ha) | Plant response rating (0 to 100 scale), Foxtail, Giant ([4]; 125 g ai/ha) | Plant response rating (0 to 100 scale), Kochia ([5]; 125 g ai/ha) | Plant response rating (0 to 100 scale), Pigweed ([6]; 125 g ai/ha) | Sedge, Umbrella plant response rating (0 to 100 scale, 0 is no effect, 100 is complete control) [7] | Barnyardgrass plant response rating (0 to 100 scale, 0 is no effect, 100 is complete control) [8] | Ducksalad plant response rating (0 to 100 scale, 0 is no effect, 100 is complete control) [9] | Rice plant response rating (0 to 100 scale, 0 is no effect, 100 is complete control) [10] | Ryegrass, It. plant response rating ([11]; 125 g ai/ha) | Barnyardgrass plant response rating ([12]; 125 g ai/ha) | Ragweed plant response rating ([13]; 125 g ai/ha) | Blackgrass plant response rating ([14]; 125 g ai/ha) | Foxtail, Giant plant response rating ([15]; 125 g ai/ha) | Wheat plant response rating ([16]; 125 g ai/ha) | Kochia plant response rating ([17]; 125 g ai/ha) | Corn plant response rating ([18]; 125 g ai/ha) | Pigweed plant response rating ([19]; 125 g ai/ha) | Galium plant response rating ([20]; 125 g ai/ha) | other results
1 | CCc1sc2ncccc2c1-c1c(OC(=O)C2CC2)c(C)nn(C)c1=O [Compound 21] | 0 | 0 | 0 | 0 | 0 | 0 | 0 | 0 | 0 | 0 | 0 | 0 | 0 | 0 | 0 | 0 | 0 | 0 | 10 | 10 | Plant response rating (0 to 100 scale), Ryegrass, It. ([1]; 500 g ai/ha): 0; Plant response rating (0 to 100 scale), Barnyardgrass ([2]; 500 g ai/ha): 0; Plant response rating (0 to 100 scale), Ragweed ([3]; 500 g ai/ha): 0; Plant response rating (0 to 100 scale), Foxtail, Giant ([4]; 500 g ai/ha): 0; Plant response rating (0 to 100 scale), Kochia ([5]; 500 g ai/ha): 0; Plant response rating (0 to 100 scale), Pigweed ([6]; 500 g ai/ha): 0; Ryegrass, It. plant response rating ([11]; 500 g ai/ha): 0; Barnyardgrass plant response rating ([12]; 500 g ai/ha): 0; Ragweed plant response rating ([13]; 500 g ai/ha): 0; Blackgrass plant response rating ([14]; 500 g ai/ha): 0; Foxtail, Giant plant response rating ([15]; 500 g ai/ha): 0; Wheat plant response rating ([16]; 500 g ai/ha): 0; Kochia plant response rating ([17]; 500 g ai/ha): 0; Corn plant response rating ([18]; 500 g ai/ha): 0; Pigweed plant response rating ([19]; 500 g ai/ha): 30; Galium plant response rating ([20]; 500 g ai/ha): 20
2 | CCC(=O)Oc1c(C)nn(C)c(=O)c1-c1c(C)ccc2cc(C)oc12 [Compound 22] | 80 | 10 | 80 | 50 | 90 | 100 | 0 | 0 | 0 | 0 | 80 | 10 | 90 | 80 | 70 | 0 | 90 | 0 | 90 | 90 | Plant response rating (0 to 100 scale), Ryegrass, It. ([1]; 31 g ai/ha): 30; Plant response rating (0 to 100 scale), Barnyardgrass ([2]; 31 g ai/ha): 0; Plant response rating (0 to 100 scale), Ragweed ([3]; 31 g ai/ha): 20; Plant response rating (0 to 100 scale), Foxtail, Giant ([4]; 31 g ai/ha): 0; Plant response rating (0 to 100 scale), Kochia ([5]; 31 g ai/ha): 30; Plant response rating (0 to 100 scale), Pigweed ([6]; 31 g ai/ha): 100; Ryegrass, It. plant response rating ([11]; 31 g ai/ha): 70; Barnyardgrass plant response rating ([12]; 31 g ai/ha): 10; Ragweed plant response rating ([13]; 31 g ai/ha): 70; Blackgrass plant response rating ([14]; 31 g ai/ha): 30; Foxtail, Giant plant response rating ([15]; 31 g ai/ha): 30; Wheat plant response rating ([16]; 31 g ai/ha): 0; Kochia plant response rating ([17]; 31 g ai/ha): 70; Corn plant response rating ([18]; 31 g ai/ha): 0; Pigweed plant response rating ([19]; 31 g ai/ha): 60; Galium plant response rating ([20]; 31 g ai/ha): 70
3 | Cc1nn(C)c(=O)c(-c2c(C)sc3ncccc23)c1OC(=O)C1CC1 [Compound 23] | 0 | 0 | 0 | 0 | 0 | 0 | 0 | 0 | 0 | 0 | 0 | 0 | 0 | 0 | 0 | 0 | 0 | 0 | 0 | 0 | Plant response rating (0 to 100 scale), Ryegrass, It. ([1]; 500 g ai/ha): 0; Plant response rating (0 to 100 scale), Barnyardgrass ([2]; 500 g ai/ha): 0; Plant response rating (0 to 100 scale), Ragweed ([3]; 500 g ai/ha): 0; Plant response rating (0 to 100 scale), Foxtail, Giant ([4]; 500 g ai/ha): 0; Plant response rating (0 to 100 scale), Kochia ([5]; 500 g ai/ha): 0; Plant response rating (0 to 100 scale), Pigweed ([6]; 500 g ai/ha): 0; Ryegrass, It. plant response rating ([11]; 500 g ai/ha): 10; Barnyardgrass plant response rating ([12]; 500 g ai/ha): 0; Ragweed plant response rating ([13]; 500 g ai/ha): 0; Blackgrass plant response rating ([14]; 500 g ai/ha): 0; Foxtail, Giant plant response rating ([15]; 500 g ai/ha): 0; Wheat plant response rating ([16]; 500 g ai/ha): 0; Kochia plant response rating ([17]; 500 g ai/ha): 0; Corn plant response rating ([18]; 500 g ai/ha): 20; Pigweed plant response rating ([19]; 500 g ai/ha): 40; Galium plant response rating ([20]; 500 g ai/ha): 0

From patent US10750743B2, “Pyridazinone herbicides” (E.I. DU PONT DE NEMOURS AND COMPANY, priority 2015, dated 2020)
